Consider one compound from patent publication US12263146B2, “Non-linear dosing of mirdametinib” (SpringWorks Therapeutics Inc., priority 2022, dated 2025).

This data set has as its system patients ≥2 and <25 years with brain cancer. The experiment in a line: Phase I/II trial of single agent mirdametinib in children, adolescents and young adults with brain cancer. The data set is classed as in vivo, human. Here is the method:
Example 1: Phase I/II Evaluation of Single Agent Mirdametinib, a Brain-Penetrant MEK1/2 Inhibitor, for the Treatment of Children, Adolescents, and Young Adults with Brain Cancer A multi-arm […] trial of mirdametinib is to be conducted in patients ≥2 and <25 years with brain cancer. Phase I requires participants have no prior exposure to MEK inhibitors and recurrent/progressive disease with biopsy-proven evidence of MAPK pathway activation. Three escalating dose levels (2 mg/m^2/dose BID, 2.5 mg/m^2/dose BID and 3 mg/m^2/dose BID) are planned using a rolling 6 design. The median age enrolled in the study is 10 years old (3-21).

Structures are written as SMILES.

As to `O=C(NOC[C@H](O)CO)c1ccc(F)c(F)c1Nc1ccc(I)cc1F` (single isomer, unassigned) [mirdametinib], where the note is “2, 2.5 and 3 mg/m^2/dose BID, patients with brain cancer”, the “MEK related retinopathy or cardiopathy” value is reported as “No MEK related retinopathy or cardiopathy is observed”. The disease progressions entry (2, 2.5 and 3 mg/m^2/dose BID, patients with recurrent/progressive brain cancer with MAPK pathway activation) was “No disease progressions”. For the setting “all three dose levels (2, 2.5 and 3 mg/m^2/dose BID), patients with brain cancer, no prior MEK inhibitor”, the dose-limiting toxicities result is recorded as “No dose-limiting toxicities”. Where the note is “dosed continuously in patients with brain cancer”, the “clinical activity (overall statement)” value is “clinically promising”.
